From US20230151057A1, “LACTIC ACID BACTERIA GROWTH PROMOTER” (Asahi Group Holdings, Ltd., priority 2020, published 2023) come the findings set out here.

This test relates to Lactobacillus gasseri (FERM BP-11331). Briefly: Growth-promoting effect on Lactobacillus gasseri in modified MRS medium (particle count). The conditions noted are these: Example 1, peptide 0.25 mg/mL, 37° C., 18 hours; for Particle concentration: inoculum 1.0×10^7 cells/mL; for Rate of increase: control without peptide = 100%. The test is classed as cell-based. From the text: Nitrogen sources in MRS medium were reduced to find a medium composition that achieves a total bacterial count of about 1.0×10^8 cell/mL to 1.0×10^9 cell/mL after culturing of each of the six bacterial strains Lactobacillus gasseri (FERNM BP-11331), Lactobacillus acidophilus (FERM BP-4981), Lactobacillus amylovorus (FERM BP-11255), Lactobacillus curvatus (NITE P-02033), Lactobacillus plantarum, and Lactobacillus brevis. This composition, named “modified MRS medium”, was used for the evaluation. Here, for the composition of the MRS medium, a composition described in a medium catalog provided by BD (Becton, Dickinson and Company) was used as a reference. The compositions of the MRS medium and the modified MRS medium are as follows. By chemical synthesis, 28 kinds of candidate peptides having the sequences shown below were provided. Each candidate peptide was added to the modified MRS medium at 0.25 mg/mL to provide a medium to be evaluated. The lactic acid bacterium Lactobacillus gasseri was inoculated at 1.0×10^7 cells/mL to the provided medium to be evaluated, and culture was carried out at a temperature of 37° C. for a culture period of 18 hours. The resulting culture was collected, and subjected to measurement of the particle concentration (particles/mL) as a characteristic value that can be used as an index of the bacterial cell growth, using a particle count analyzer (CDA-1000, Sysmex). The rate of increase (%) was calculated relative to a control value obtained using a medium to which no peptide was added, which was taken as 100%. Using the dipeptide LF (Leu-Phe) and an equimolar mixture of leucine (L) and phenylalanine (F), culture was carried out in the same manner as in Example 1, and the growth-promoting effects of the dipeptide and the amino acid mixture on the lactic acid bacterium were evaluated. Using a dipeptide (LF) as the peptide, the growth-promoting effect on a lactic acid bacterium was evaluated in the same manner except that the concentration of the dipeptide added was 0.1 mg/mL, 0.25 mg/mL, or 1.0 mg/mL.

Val-Pro-Ile [VPI]: the Particle concentration came out at 2.11e+08 mL⁻¹ and the Rate of increase is 112%. For Ile-Phe [IF] the same measures were 2.01e+08 mL⁻¹ and 114%.

“Ile-Pro-Gly-Ile (IPGI; listed as Saccharomyces cerevisiae)” showed a Particle concentration of 2.19e+08 mL⁻¹ and a Rate of increase of 119%. For “PNVLPETE (listed as Saccharomyces cerevisiae) [Pro-Asn-Val-Leu-Pro-Glu-Thr-Glu]” the same measures were 2e+08 mL⁻¹ and 101%.

Substance Phe-Leu [FL] registered a Particle concentration of 1.98e+08 mL⁻¹ and a Rate of increase of 112%.

On to “Val-Pro-Val-Gly (VPVG; listed as Saccharomyces cerevisiae)”, for which the Particle concentration was 1.76e+08 mL⁻¹ and the Rate of increase was 102%. For Leu-Pro-Thr [LPT] the same measures were 1.9e+08 mL⁻¹ and 104%. Turning to “Ile-Pro-Ile-Gln (IPIQ; listed as Saccharomyces cerevisiae)”, the Particle concentration is 2.11e+08 mL⁻¹ and the Rate of increase turned out to be 115%. For Leu-Val-Glu [LVE] the same measures were 1.96e+08 mL⁻¹ and 104%. For “WDESRFQ (listed as Saccharomyces cerevisiae) [Trp-Asp-Glu-Ser-Arg-Phe-Gln]” the same measures were 2.38e+08 mL⁻¹ and 120%. As for “SEYPPLG (listed as Saccharomyces cerevisiae) [Ser-Glu-Tyr-Pro-Pro-Leu-Gly]”, the Particle concentration is 2.36e+08 mL⁻¹ and the Rate of increase worked out at 119%. For “HDDKHIIVD (listed as Saccharomyces cerevisiae) [His-Asp-Asp-Lys-His-Ile-Ile-Val-Asp]” the same measures were 2.25e+08 mL⁻¹ and 114%.

“Leu-Pro-Leu-Gly (LPLG; listed as Saccharomyces cerevisiae)”: the Particle concentration worked out at 2.2e+08 mL⁻¹ and the Rate of increase was 120%. For Val-Pro-Leu [VPL] the same measures were 2.01e+08 mL⁻¹ and 107%. Leu-Pro-Gln [LPQ] came in with a Particle concentration of 1.97e+08 mL⁻¹ and a Rate of increase of 107%. For “Leu-Pro-Val-Leu (LPVL; listed as Saccharomyces cerevisiae)” the same measures were 2.07e+08 mL⁻¹ and 113%. For Ile-Pro-Gln [IPQ] the same measures were 1.82e+08 mL⁻¹ and 99%. The substance Ile-Pro-Thr [IPT] yielded a Particle concentration of 1.79e+08 mL⁻¹ and a Rate of increase of 98%. “Ile-Pro-Ile-Thr (IPIT; listed as Saccharomyces cerevisiae)” yielded a Rate of increase of 121%. Ile-Val-Glu [IVE] showed a Particle concentration of 1.81e+08 mL⁻¹ and a Rate of increase of 96%.
